Source: PMC3368886, “ATPase Cycle and DNA Unwinding Kinetics of RecG Helicase” (PLoS ONE, 2012)

Assays:
RecG⋅DNA(A40:B40) [1] = biological target: T1, RecG⋅DNA(A40:B40) (Thermotoga maritima, UniProt Q9WY48); assay: ADP dissociation kinetics by displacement with excess mantADP; format: binding
T1 construct: made in house
T1 sequence (Q9WY48 1-780): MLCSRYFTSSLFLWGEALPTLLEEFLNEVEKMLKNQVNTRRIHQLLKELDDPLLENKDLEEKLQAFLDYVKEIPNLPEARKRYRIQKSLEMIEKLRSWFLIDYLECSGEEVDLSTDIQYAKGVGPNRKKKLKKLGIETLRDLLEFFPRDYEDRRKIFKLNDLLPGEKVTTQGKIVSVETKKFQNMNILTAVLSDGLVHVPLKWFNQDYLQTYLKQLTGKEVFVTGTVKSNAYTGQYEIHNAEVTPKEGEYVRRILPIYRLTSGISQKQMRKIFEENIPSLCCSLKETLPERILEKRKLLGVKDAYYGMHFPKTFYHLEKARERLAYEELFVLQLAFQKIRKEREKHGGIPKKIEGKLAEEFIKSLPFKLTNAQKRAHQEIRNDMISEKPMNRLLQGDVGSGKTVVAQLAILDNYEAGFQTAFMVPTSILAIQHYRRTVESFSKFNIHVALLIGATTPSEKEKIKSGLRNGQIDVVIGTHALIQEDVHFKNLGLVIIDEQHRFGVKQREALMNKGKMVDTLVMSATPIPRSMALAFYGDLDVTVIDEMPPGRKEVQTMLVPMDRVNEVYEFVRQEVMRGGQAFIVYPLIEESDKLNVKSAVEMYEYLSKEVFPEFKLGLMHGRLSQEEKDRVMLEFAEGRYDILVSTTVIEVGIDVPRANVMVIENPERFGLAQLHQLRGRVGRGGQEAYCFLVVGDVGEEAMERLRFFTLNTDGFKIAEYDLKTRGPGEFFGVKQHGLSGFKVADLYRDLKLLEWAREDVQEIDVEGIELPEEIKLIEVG
Protocol: Figure 6 ATPase cycle measurements with unmodified nucleotides. (A) Phosphate measurements at different ATP concentrations. 0.5 µM RecG, premixed with 2.5 µM DNA (A40:B40), was then mixed in the stopped-flow apparatus with ATP at the micromolar concentrations shown, in the presence of 10 µM MDCC-PBP. (B) Best fit time courses of the Pi release, based upon a model of the ATPase cycle, as described in the text. Curves were obtained by glogal fitting the curves at different concentrations, using Global kinetic Explorer. Note that in comparison, the experimental time courses show a small transient of Pi at times <100 ms. This is likely to be due to free Pi and this behavior, overlaying a lag, has been observed previously in multi-turnover measurements. (C) ADP Release kinetics. […] The increase in fluorescence was fitted to single exponential giving the dissociation rate constant of 11.4 (±2.2) s^−1. […]
A direct measurement of ADP dissociation kinetics was possible because of its relatively tight binding to RecG, which allowed quantitative formation of the ADP complex. […] The rate constant for dissociation was determined from a single exponential fit as 11.4 (±2) s^−1 (Figure 6C). This value fits well with the model whereby the dissociation rate constant is calculated as ≥12.5 s^−1.

RecG = biological target: T2, RecG (Thermotoga maritima, UniProt Q9WY48); assay: Steady-state ATPase rate measurements with phosphate biosensor MDCC-PBP; format: biochemical; details: 10 µM ATP, varying inhibitor, 500 nM DNA junction (A40:B40), 20°C
T2 construct: made in house
T2 sequence (Q9WY48 1-780): T1 sequence (Q9WY48 1-780)
From the text: Steady-state measurements were made to gain an overall assessment of the reaction and the affinities of various nucleotides before investigating the individual steps in the ATPase cycle. A two-strand DNA junction, which contains two 20-bp regions of complementary and non-complementary sequences (A40:B40 Figure 1 and Table S1), was used in all these measurements. This forms a Y-shape structure and RecG translocates one single-stranded arm, but then remains bound to the end of the junction still hydrolyzing ATP [10].
All reactions with RecG and DNA were done at 20°C in a buffer containing 50 mM Tris⋅acetate (pH 8.0), 30 mM potassium acetate, 3 mM magnesium acetate and 1 mM DTT. ATPase measurements using MDCC-PBP were taken in the presence of a Pi mop, as described above. Steady-state ATPase measurements were taken in a solution (60 µl) at 20°C, containing 10 nM RecG, 500 nM DNA junction (A40∶B40, see Table S1) and 10 µM MDCC-PBP with varying nucleotide concentrations as substrate or inhibitor [23].

RecG⋅DNA(A40:B40) [2] = biological target: T1, RecG⋅DNA(A40:B40); assay: Pi release with excess ATP, global fit to ATPase cycle model; format: biochemical; details: fixed to be consistent with K i for ADP
Protocol: The rate of Pi release was measured after mixing RecG⋅DNA with excess ATP, using the phosphate biosensor, in the stopped-flow apparatus (Figure 6A). […] Both phases are dependent on ATP concentration. The lag decreased, while the rate of the linear phase increased with greater concentrations of ATP. The lag is due to the steps prior to Pi release, namely ATP binding and cleavage. […] Such a burst phase would result from the relatively fast Pi release of the initial cycle before the Pi release of subsequent cycles was limited by slow ADP release.
Figure 6 ATPase cycle measurements with unmodified nucleotides. (A) Phosphate measurements at different ATP concentrations. 0.5 µM RecG, premixed with 2.5 µM DNA (A40:B40), was then mixed in the stopped-flow apparatus with ATP at the micromolar concentrations shown, in the presence of 10 µM MDCC-PBP. (B) Best fit time courses of the Pi release, based upon a model of the ATPase cycle, as described in the text. Curves were obtained by glogal fitting the curves at different concentrations, using Global kinetic Explorer. Note that in comparison, the experimental time courses show a small transient of Pi at times <100 ms. This is likely to be due to free Pi and this behavior, overlaying a lag, has been observed previously in multi-turnover measurements. (C) ADP Release kinetics. 10 µM RecG⋅DNA (A40∶B40) was pre-bound with 10 µM ADP before mixing with an excess of mantADP (20 µM): these concentrations are final in the mixing chamber. The increase in fluorescence was fitted to single exponential giving the dissociation rate constant of 11.4 (±2.2) s^−1. Rate constants were independent of mantADP concentration in the range of 20–80 µM.
A scheme of the ATPase cycle (Figure 2) was used to simulate the data to assess the individual rate constants. […] The simulated traces (Figure 6B) were obtained from a global fit to the experimental data. This was done by allowing only the rate constants that have maximum influence on the curve shapes to vary. Cleavage and Pi release were assumed to be irreversible. For the fit, Pi release was fixed at 100 s^–1, ADP release at 12.5 s^–1, as the fitting was relatively insensitive to changes in these constants. […] The resulting best fit gave rate constants for ATP binding as 0.65 (±0.02) µM^−1s^−1, dissociation of ATP as 10.0 (±0.6) s^−1, cleavage as 7.1 (±0.1) s^−1. The fit gave a cleavage rate constant similar to the value of k cat from the steady-state analysis (Table 1a). The rate constant for ADP release may be only slightly larger than that of cleavage step.
Data were fitted to theoretical equations using the stopped-flow software or Grafit. Kinetic simulations were performed using Berkeley Madonna (Version 8.3, University of California at Berkeley) and using Global Kinetic Explorer (Kintek). […]

Structure (SMILES): Nc1ncnc2c1ncn2[C@@H]1O[C@H](COP(=O)(O)OP(=O)(O)O)[C@@H](O)[C@H]1O [ADP]
- ADP dissociation rate constant (RecG⋅DNA(A40:B40) [1]; 10 µM RecG⋅DNA pre-bound with 10 µM ADP, mixed with 20 µM mantADP): 11.4 (±2.2) s^−1
- estimated ADP association rate constant (RecG⋅DNA(A40:B40) [1]; from dissociation rate constant and K i): 1.6e+06 M⁻¹ s⁻¹
- Ki (RecG): 7.3 µM
- ADP binding rate constant in the model (RecG⋅DNA(A40:B40) [2]): 1.7 µM^−1s^–1
